Experimental data reported in ChEMBL document CHEMBL1201862, “PubChem BioAssay data set” (2004).
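Test compounds were applied to cells in 96-well plates for 48 hours at 5 doses. GI50 marks 50% less growth.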 Active and inactive are the calls of the source. Rule as the data show it: active = GI50 up to about 1.1 µM and inactive = higher.

Legend:
Assay in all cases: inhibition of tumour cell growth, NCI panel, 48 h
NCI-H226 = test system: NCI-H226
ACHN = test system: ACHN
UO-31 = test system: UO-31
SF-295 = test system: SF-295
Hs-578T = test system: Hs-578T
HL-60 = test system: HL-60
MDA-N = test system: MDA-N
M14 = test system: M14
NCI-H460 = test system: NCI-H460
A549 = test system: A549
SK-MEL-2 = test system: SK-MEL-2
OVCAR-3 = test system: OVCAR-3
PC-3 = test system: PC-3
RPMI-8226 = test system: RPMI-8226
DU-145 = test system: DU-145
NCI/ADR-RES = test system: NCI/ADR-RES
A498 = test system: A498
UACC-62 = test system: UACC-62
SR = test system: SR
MDA-MB-435 = test system: MDA-MB-435
KM12 = test system: KM12
HCT-116 = test system: HCT-116
T47D = test system: T47D
HCT-15 = test system: HCT-15
CCRF-CEM = test system: CCRF-CEM
OVCAR-8 = test system: OVCAR-8
HOP-62 = test system: HOP-62
SK-MEL-28 = test system: SK-MEL-28
SW-620 = test system: SW-620
NCI-H522 = test system: NCI-H522
SNB-19 = test system: SNB-19
U-251 = test system: U-251
SK-MEL-5 = test system: SK-MEL-5
OVCAR-5 = test system: OVCAR-5
SN12C = test system: SN12C
EKVX = test system: EKVX
MDA-MB-231 = test system: MDA-MB-231
SF-268 = test system: SF-268
CAKI-1 = test system: CAKI-1
SNB-75 = test system: SNB-75
MOLT-4 = test system: MOLT-4
SF-539 = test system: SF-539
HT-29 = test system: HT-29
OVCAR-4 = test system: OVCAR-4
SK-OV-3 = test system: SK-OV-3
TK-10 = test system: TK-10
NCI-H23 = test system: NCI-H23
HCC 2998 = test system: HCC 2998
COLO 205 = test system: COLO 205
Malme-3M = test system: Malme-3M
RXF 393 = test system: RXF 393
MCF7 = test system: MCF7
IGROV-1 = test system: IGROV-1
LOX IMVI = test system: LOX IMVI
UACC-257 = test system: UACC-257
K562 = test system: K562
786-0 = test system: 786-0
HOP-92 = test system: HOP-92

Measured: GI50

COc1ccc(N2C(=O)C3c4[nH]c5ccc(F)cc5c4C4CCC(C(C)(C)C)CC4C3C2=O)cc1 (stereo unspecified)
> 10 µM: HCT-15
inactive: NCI-H226 > 10 µM | ACHN > 10 µM | UO-31 > 10 µM | SF-295 6.04 µM | Hs-578T 2.81 µM | HL-60 > 10 µM | MDA-N > 10 µM | M14 7.85 µM | NCI-H460 5.07 µM | A549 7.1 µM | SK-MEL-2 > 10 µM | OVCAR-3 > 10 µM | PC-3 7.33 µM | RPMI-8226 > 10 µM | DU-145 > 10 µM | NCI/ADR-RES 9.08 µM | A498 > 10 µM | UACC-62 7.43 µM | SR > 10 µM | MDA-MB-435 > 10 µM | KM12 > 10 µM | HCT-116 4.14 µM | T47D 9.25 µM | CCRF-CEM 7.13 µM | OVCAR-8 7.8 µM | HOP-62 7.23 µM | SK-MEL-28 > 10 µM | SW-620 7.26 µM | NCI-H522 6.87 µM | SNB-19 > 10 µM | U-251 5.02 µM | SK-MEL-5 > 10 µM | OVCAR-5 > 10 µM | SN12C > 10 µM | EKVX > 10 µM | MDA-MB-231 > 10 µM | SF-268 8.28 µM | CAKI-1 > 10 µM | SNB-75 1.84 µM | MOLT-4 > 10 µM | SF-539 6.35 µM | HT-29 6.28 µM | OVCAR-4 6.05 µM | SK-OV-3 > 10 µM | TK-10 9.38 µM | NCI-H23 > 10 µM | HCC 2998 > 10 µM | COLO 205 > 10 µM | Malme-3M > 10 µM | RXF 393 > 10 µM | MCF7 > 10 µM | IGROV-1 > 10 µM

Cc1cc2c3c(c1)CCCN3CCC2
> 10 µM: HCT-15
inactive: NCI-H226 > 10 µM | ACHN > 10 µM | LOX IMVI > 10 µM | UO-31 > 10 µM | SF-295 > 10 µM | Hs-578T > 10 µM | HL-60 > 10 µM | MDA-N > 10 µM | M14 > 10 µM | NCI-H460 > 10 µM | A549 > 10 µM | SK-MEL-2 > 10 µM | OVCAR-3 > 10 µM | PC-3 > 10 µM | RPMI-8226 > 10 µM | DU-145 > 10 µM | NCI/ADR-RES > 10 µM | A498 > 10 µM | UACC-62 > 10 µM | SR > 10 µM | MDA-MB-435 > 10 µM | KM12 > 10 µM | HCT-116 > 10 µM | T47D > 10 µM | CCRF-CEM > 10 µM | OVCAR-8 > 10 µM | HOP-62 > 10 µM | SK-MEL-28 > 10 µM | SW-620 > 10 µM | NCI-H522 > 10 µM | SNB-19 > 10 µM | U-251 > 10 µM | SK-MEL-5 > 10 µM | SN12C > 10 µM | UACC-257 > 10 µM | EKVX > 10 µM | MDA-MB-231 > 10 µM | SF-268 > 10 µM | K562 > 10 µM | CAKI-1 > 10 µM | SNB-75 > 10 µM | MOLT-4 > 10 µM | SF-539 > 10 µM | HT-29 > 10 µM | 786-0 > 10 µM | OVCAR-4 > 10 µM | SK-OV-3 > 10 µM | TK-10 > 10 µM | NCI-H23 > 10 µM | HCC 2998 > 10 µM | COLO 205 > 10 µM | Malme-3M > 10 µM | RXF 393 > 10 µM | HOP-92 > 10 µM | MCF7 > 10 µM | IGROV-1 > 10 µM

Cc1ccc([N+](=O)[O-])cc1NC1=NCCO1
inactive: NCI-H226 > 100 µM | ACHN > 100 µM | LOX IMVI > 100 µM | UO-31 > 100 µM | SF-295 > 100 µM | Hs-578T > 100 µM | HL-60 > 100 µM | MDA-N > 100 µM | M14 > 100 µM | NCI-H460 > 100 µM | A549 > 100 µM | SK-MEL-2 > 100 µM | OVCAR-3 > 100 µM | PC-3 > 100 µM | RPMI-8226 > 100 µM | DU-145 > 100 µM | NCI/ADR-RES > 100 µM | A498 > 100 µM | UACC-62 > 100 µM | SR 45.8 µM | MDA-MB-435 > 100 µM | KM12 > 100 µM | HCT-116 > 100 µM | T47D > 100 µM | CCRF-CEM > 100 µM | OVCAR-8 > 100 µM | HOP-62 > 100 µM | SK-MEL-28 > 100 µM | SW-620 > 100 µM | NCI-H522 > 100 µM | SNB-19 > 100 µM | U-251 > 100 µM | SK-MEL-5 > 100 µM | OVCAR-5 > 100 µM | SN12C > 100 µM | UACC-257 > 100 µM | EKVX > 100 µM | MDA-MB-231 > 100 µM | SF-268 > 100 µM | K562 > 100 µM | CAKI-1 > 100 µM | SNB-75 > 100 µM | MOLT-4 > 100 µM | SF-539 > 100 µM | HT-29 > 100 µM | 786-0 > 100 µM | OVCAR-4 > 100 µM | SK-OV-3 > 100 µM | TK-10 > 100 µM | NCI-H23 > 100 µM | HCC 2998 > 100 µM | COLO 205 > 100 µM | Malme-3M > 100 µM | RXF 393 > 100 µM | MCF7 > 100 µM | IGROV-1 > 100 µM
> 100 µM: HCT-15

CC(=O)OC1CC2CC(=O)CC1N2C (stereo unspecified)
> 100 µM: HCT-15
inactive: NCI-H226 > 100 µM | ACHN > 100 µM | LOX IMVI > 100 µM | UO-31 > 100 µM | SF-295 > 100 µM | Hs-578T > 100 µM | HL-60 > 100 µM | MDA-N > 100 µM | M14 > 100 µM | NCI-H460 > 100 µM | A549 > 100 µM | SK-MEL-2 > 100 µM | OVCAR-3 > 100 µM | PC-3 > 100 µM | RPMI-8226 68.7 µM | DU-145 > 100 µM | NCI/ADR-RES > 100 µM | A498 > 100 µM | UACC-62 > 100 µM | SR > 100 µM | MDA-MB-435 > 100 µM | KM12 > 100 µM | HCT-116 > 100 µM | T47D > 100 µM | CCRF-CEM > 100 µM | OVCAR-8 > 100 µM | HOP-62 > 100 µM | SK-MEL-28 > 100 µM | SW-620 > 100 µM | NCI-H522 > 100 µM | SNB-19 > 100 µM | U-251 > 100 µM | SK-MEL-5 > 100 µM | OVCAR-5 > 100 µM | SN12C > 100 µM | UACC-257 > 100 µM | EKVX > 100 µM | MDA-MB-231 > 100 µM | SF-268 > 100 µM | K562 > 100 µM | CAKI-1 > 100 µM | SNB-75 > 100 µM | MOLT-4 > 100 µM | SF-539 > 100 µM | HT-29 > 100 µM | 786-0 > 100 µM | OVCAR-4 > 100 µM | SK-OV-3 > 100 µM | TK-10 > 100 µM | NCI-H23 > 100 µM | HCC 2998 > 100 µM | COLO 205 > 100 µM | Malme-3M > 100 µM | RXF 393 > 100 µM | HOP-92 > 100 µM | MCF7 > 100 µM | IGROV-1 > 100 µM

C=C=C(C)[Si](C)(C)C
> 100 µM: HCT-15
inactive: NCI-H226 > 100 µM | ACHN > 100 µM | LOX IMVI > 100 µM | UO-31 > 100 µM | SF-295 > 100 µM | Hs-578T > 100 µM | HL-60 23.7 µM | MDA-N > 100 µM | M14 > 100 µM | NCI-H460 > 100 µM | A549 > 100 µM | SK-MEL-2 > 100 µM | OVCAR-3 > 100 µM | PC-3 > 100 µM | RPMI-8226 > 100 µM | DU-145 > 100 µM | NCI/ADR-RES > 100 µM | A498 > 100 µM | UACC-62 > 100 µM | SR > 100 µM | MDA-MB-435 > 100 µM | KM12 > 100 µM | HCT-116 > 100 µM | T47D > 100 µM | CCRF-CEM > 100 µM | OVCAR-8 > 100 µM | HOP-62 > 100 µM | SK-MEL-28 > 100 µM | SW-620 90.6 µM | NCI-H522 > 100 µM | SNB-19 > 100 µM | U-251 > 100 µM | SK-MEL-5 > 100 µM | OVCAR-5 > 100 µM | SN12C > 100 µM | UACC-257 > 100 µM | MDA-MB-231 > 100 µM | SF-268 > 100 µM | K562 > 100 µM | CAKI-1 > 100 µM | SNB-75 96.2 µM | MOLT-4 > 100 µM | SF-539 > 100 µM | HT-29 > 100 µM | 786-0 > 100 µM | OVCAR-4 > 100 µM | SK-OV-3 > 100 µM | TK-10 > 100 µM | NCI-H23 > 100 µM | HCC 2998 > 100 µM | COLO 205 > 100 µM | Malme-3M > 100 µM | RXF 393 > 100 µM | MCF7 > 100 µM | IGROV-1 71.1 µM
